This series in a line: Chemical stability of amorphous solid dispersions (HPLC: LCAP, total impurities) through processing and on storage. It is filed as physicochemical. The following applies: all storage conditions. Here is the method: The chemical and physical stability of AMG 397 50% drug load ASDs generated by spray drying from THF was monitored over 4 weeks under accelerated conditions. Chemical stability was measured by HPLC and physical stability by XRPD, DSC and TGA. Samples were stored at 40° C./75% RH open, 40° C./75% RH closed, 25° C./60% RH closed, and 5° C. closed. All samples were tested after storage for 4 weeks except for the 40° C./75% RH open condition that was also tested at weeks 1 and 2. The THF ASD samples had significant degradation at TO due to the use of THF as the spray solvent. […] Unlike the amorphous DS, the ASD samples were stable when stored at 5° C. for 4-weeks.
Two further amorphous solid dispersions (ASD) were therefore prepared by spray-drying using DCM as the solvent in place of THF. Soluplus was used to prepare both these dispersions due to its improved stability over HPMC-AS ASDs generated from THF. Two drug loads were investigated, 25% and 50%.
The chemical stability of AMG 397 Soluplus ASDs generated by spray drying using DCM was monitored during each processing step to ensure that no degradation occurred during spray-drying or secondary drying. Samples were also stored for 4 weeks under the following conditions: 5° C. closed, 25° C. closed, 25°,C/60% RH closed, 25° C./60% RH open, 40° C./75% RH open and 40° C./75% RH closed. […]

In the case of `CO[C@]1(CN2CCN3CCCC[C@@H]3C2)/C=C/C[C@H](C)[C@@H](C)S(=O)(=O)NC(=O)c2ccc3c(c2)N(C[C@@H]2CC[C@H]21)C[C@@]1(CCCc2cc(Cl)ccc21)CO3` [AMG 397 Amorphous], the “Change of total impurities at 4-weeks” value is given as “Increases in total impurities”.

The record behind these values is US12643913B2, “Mcl-1 inhibitor formulations” (AMGEN INC., priority 2020, dated 2026).
